Measured values from patent publication US12419862B2, “Use of a cathepsin s inhibitor against the formation of anti-drug antibodies” (Hoffmann-La Roche Inc., priority 2018, dated 2025).

Tests used:
[1] = system: high affinity NP-specific IgG response; assay: T-cell dependent NP-specific IgG response after NP-OVAL immunization, ELISA (Example 2); format: in vivo, mice; details: 40 mg/kg/day via food admix from two days before NP-OVAL immunization until day 35, vs vehicle
Experimental: 6 to 8-weeks-old female mice C57BL/6-Tg (hIgG1,k,l) were purchased from Charles River Laboratories (Germany) and housed at the animal facilities in room with air-conditioned under a 12 hours light/dark cycle in macrolon boxes with enriched environment and free access to water and food. The mice were injected at day −2 subcutaneously with 20 μg/mouse of NP-OVAL (4-Hydroxy-3-nitrophenylacetyl hapten conjugated to ovalbumin, Biosearch Technologies, USA, Batch No 060368) with adjuvant (Alhydrogel, InvivoGen #vac-alu-250) at the both flanks or without adjuvant at day 28. The dosage of (2S,4R)-4-[4-(1-methyl-1H-pyrazol-4-yl)-2-trifluoromethyl-benzenesulfonyl]-1-(1-trifluoromethyl-cyclopropanecarbonyl)-pyrrolidine-2-carboxylic acid (1-cyano-cyclopropyl)-amide consumption was 0 (vehicle), 1, 10, 40 mg/kg/day. […]
(§1) Nunc Maxisorp flat-bottom 96 well ELISA plates were coated with 100 μl per well of NP(4)-BSA (Biosearch Technologies N-5050L; 1 mg/mL) at 1 μg/mL in NaHCO3100 mM buffer and incubated overnight at +4° C. […] 100 μl of substrate P-nitrophenyl phosphate ready to use (Life Technologies, Cat no 002212) were added per well and after 10 min incubation at room temperature, the OD at 405 nm was read as an end-point measurement with a Versamax ELISA reader.

[2] = system: CEA-specific IgG response; assay: ADA against CEA-IL2v in hIgG1 Tg mice over time, ELISA (Example 4, 63 days); format: in vivo, C57BL/6-Tg (hIgG1,k,l) mice; details: 40 mg/kg/day via food admix, primary and memory response, samples to day 63, vs vehicle
Experimental: 15-week-old mice C57BL/6-Tg (hIgG1,k,l) and C57BL/6 wild type mixed gender were purchased from Taconic (Denmark) and housed at the animal facilities in room with air-conditioned under a 12 hours light/dark cycle in macrolon boxes with enriched environment and free access to water and food. 7×10 μg of CEA-IL2v (Batch no GLI0144-01) were injected at day 0, 4, 7, 11, 14, 18 and 21 for the primary response, and at day 49, 53, 56 and 60 for the memory response. The CEA-112v injections were done subcutaneously in the right flank or the left flank alternatively. The dosage of (2S,4R)-4-[4-(1-methyl-1H-pyrazol-4-yl)-2-trifluoromethyl-benzenesulfonyl]-1-(1-trifluoromethyl-cyclopropanecarbonyl)-pyrrolidine-2-carboxylic acid (1-cyano-cyclopropyl)-amide consumption was 40 mg/kg/day. […]
as §1, with “of Humira or CEA-PGLALA respectively” for “of NP(4)-BSA (Biosearch Technologies N-5050L; 1 mg/mL)”, “at 5” for “at 1”, “buffer” for “buffer and incubated”

SMILES: Cn1cc(-c2ccc(S(=O)(=O)[C@@H]3C[C@@H](C(=O)NC4(C#N)CC4)N(C(=O)C4(C(F)(F)F)CC4)C3)c(C(F)(F)F)c2)cn1 [cathepsin S inhibitor, (2S,4R)-4-[4-(1-methyl-1H-pyrazol-4-yl)-2-trifluoromethyl-benzenesulfonyl]-1-(1-trifluoromethyl-cyclopropanecarbonyl)-pyrrolidine-2-carboxylic acid (1-cyano-cyclopropyl)-amide]
- NP-specific IgG levels (T-cell dependent IgG response against NP) [1]: significantly reduces NP-specific IgG levels
- NP-specific IgG levels (T-cell dependent IgG response against NP) ([1]; listed as cathepsin S antagonist): effectively abrogating the T-cell dependent IgG response against NP
- ADA to CEA-IL2v (CEA-specific IgG) over time [2]: prevents ADA to CEA-IL2v in hIgG transgenic mice
